Patent US8501789B2, “Use of salicylaldehyde isonicotinoyl hydrazone (SIH) for protection against retinal disease” (The Trustees of the University of Pennsylvania, priority 2007, dated 2013)
Where two headings read alike, the source gives them in different places.

Experiments:
[1] = tested on: ARPE-19 cells; assay: Staurosporine-induced cell death, LDH release and LIVE/DEAD assay; assay type: cell-based, Human
Description: (A) Graph of LDH release following exposure of ARPE-19 cells to varying concentrations of staurosporine. […] (B) Graph of LDH release following exposure of ARPE-19 cells to 200 nM staurosporine plus different concentrations of SIH. […] (C) Fluorescence photomicrograph of cells labeled with the LIVE/DEAD assay following treatment with staurosporine and/or SIH as indicated; To evaluate SIH's cytoprotective properties, SIH at different concentrations was applied to confluent ARPE-19 cells four hrs prior to the addition of H2O2, staurosporine or anti-Fas antibody. Hydrogen peroxide (30% H2O2 from Sigma, St. Louis, Mo.) at final concentration ranging from 1 to 5 mM, Staurosporine (1 mM solution from Sigma) at 100-500 nM final concentration or aFas antibody (Upstate-Millipore, Billerica, Mass.) at 1 μg/mL final concentration were mixed with the indicated concentrations of SIH immediately before applying to ARPE-19 cells. All reagents were dissolved in Minimal Essential Medium (MEM, Invitrogen) as indicated and were applied rapidly and uniformly following two washing steps in HBSS. Cell death was assayed after 24 hrs using the LDH Release Assay Kit (Roche, Basel, Switzerland). Cytotoxicity was calculated using the ratio between maximum LDH release in 2% Triton X100-treated cells and minimum LDH release in cells incubated in MEM. Visualization of cell death was performed using the LIVE/DEAD Viability/Cytotoxicity kit (Invitrogen).

[2] = tested on: ARPE-19 cells; assay: Intracellular ROS generation, dihydrorhodamine 123 fluorescence; assay type: cell-based, Human
Description: Level of ROS generation is detected by dihydrorhodamine 123 (green fluorescence) in cells treated with staurosporine and/or 3 μM SIH as indicated. Mitotracker dye (red fluorescence) indicates location of mitochondria; and
Intracellular ROS generation was measured in cultured cells by using the fluorescent probe dihydrorhodamine 123 (DHR123). Mitochondria were localized with Mitotracker Red 580 (Molecular Probes, Eugene, Oreg.). After 30 min of staurosporine exposure with our without SIH, cells were incubated with staurosporine +/−SIH in the presence of 10 μM DHR123 and 2 μM Mitotracker Red 580 at 37° C. for 15 min. DHR fluoresces and localizes to mitochondria when oxidized by ROS to the positively charged rhodamine 123^33. Mitotracker dye passively diffuses across the plasma membrane and specifically accumulates in active mitochondria.
To test whether iron contributes to this ROS production, and whether a decrease in mitochondrial ROS might be a mechanism of SIH protection, ROS were detected with rhodamine 123 after 30 min of staurosporine treatment. In the presence of ROS, non-fluorescent dihydrorhodamine 123 is converted into highly fluorescent rhodamine 123.

[3] = tested on: intracellular labile iron levels in ARPE-19 cells stably transfected with the IRE-GFP reporter (iRPE); assay: Labile iron chelation in IRE-GFP iron-reporting ARPE (iRPE) cells, GFP fluorescence; assay type: cell-based, Human; conditions: for GFP fluorescence (labile iron level): iRPE cells, 24 h, iron-free MEM
Description: Fluorescence intensity indicates relative intracellular iron levels. […] Images are representative of results from 3 independent experiments and taken using identical exposure parameters;
Human adult RPE cells (ARPE-19 cell line from ATCC) were cultured until confluent in 24-well Falcon plates in 1:1 DMEM High Glucose with L-Glutamine and Ham's F12 media (Invitrogen, Carlsbad, Calif.) supplemented with 10% FBS (Hyclone, Logan, Utah). For labile iron detection ARPE cells were stably transfected with a pcDNA3.1 plasmid with an IRE-GFP insert (gift of Drs. Sangwon Kim and Sol Snyder, Johns Hopkins) as a reporter for intracellular iron levels. These cells were named iron-reporting ARPE (iRPE) cells. […] Epifluorescence microscopy was performed with a Nikon TE-300 microscope (Nikon Inc., Japan) and SpotRT Slider camera (Diagnostic Instruments, Inc., Sterling Heights, Mich.) with ImagePro Plus software, version 4.1 (Media Cybernetics, Silver Spring, Md.).
To quantify the labile iron pool, an iron-reporting RPE cell line (iRPE) was first generated, wherein fluorescence green fluorescent protein reflects labile iron levels. This was accomplished by making a stable cell line with the plasmid IRE-GFP (gift of Sangwon Kim and Sol Snyder). The iron responsive element (IRE) sequence in the 5′ untranslated region of the mRNA is bound by iron regulatory proteins only when labile iron levels are low, leading to inhibition of GFP translation. The fluorescence of iRPE cells treated with different concentrations of SIH for 24 h was determined (FIG. 2).

[4] = tested on: ARPE-19 cells; assay type: cell-based; conditions: for 5 mM H2O2 cytotoxicity: LDH release and Live/Dead
Description: Red indicates dead cells as detected by ethidium bromide homodimer fluorescence. Green indicates live cells as detected by calcein fluorescence;
Human adult RPE cells (ARPE-19 cell line from ATCC) were cultured until confluent in 24-well Falcon plates in 1:1 DMEM High Glucose with L-Glutamine and Ham's F12 media (Invitrogen, Carlsbad, Calif.) supplemented with 10% FBS (Hyclone, Logan, Utah). For labile iron detection ARPE cells were stably transfected with a pcDNA3.1 plasmid with an IRE-GFP insert (gift of Drs. Sangwon Kim and Sol Snyder, Johns Hopkins) as a reporter for intracellular iron levels. These cells were named iron-reporting ARPE (iRPE) cells. Efficacy of labile iron chelation was tested by adding different concentrations of SIH to the iron-free MEM medium on iRPE cells and assessing decrease in GFP fluorescence as a measure of reduction in intracellular iron levels at the 24 h time point. Epifluorescence microscopy was performed with a Nikon TE-300 microscope (Nikon Inc., Japan) and SpotRT Slider camera (Diagnostic Instruments, Inc., Sterling Heights, Mich.) with ImagePro Plus software, version 4.1 (Media Cybernetics, Silver Spring, Md.).
To evaluate SIH's cytoprotective properties, SIH at different concentrations was applied to confluent ARPE-19 cells four hrs prior to the addition of H2O2, staurosporine or anti-Fas antibody. Hydrogen peroxide (30% H2O2 from Sigma, St. Louis, Mo.) at final concentration ranging from 1 to 5 mM, Staurosporine (1 mM solution from Sigma) at 100-500 nM final concentration or aFas antibody (Upstate-Millipore, Billerica, Mass.) at 1 μg/mL final concentration were mixed with the indicated concentrations of SIH immediately before applying to ARPE-19 cells. All reagents were dissolved in Minimal Essential Medium (MEM, Invitrogen) as indicated and were applied rapidly and uniformly following two washing steps in HBSS.
Cell death was assayed after 24 hrs using the LDH Release Assay Kit (Roche, Basel, Switzerland). Cytotoxicity was calculated using the ratio between maximum LDH release in 2% Triton X100-treated cells and minimum LDH release in cells incubated in MEM. Visualization of cell death was performed using the LIVE/DEAD Viability/Cytotoxicity kit (Invitrogen).

[5] = UV/VIS spectra of SIH, H2O2 and their mixture (chemical interaction); assay type: physicochemical
[6] = tested on: ARPE-19 cells; assay type: cell-based, Human
[7] = tested on: ARPE-19 cells that had accumulated A2E; assay: A2E/blue light-induced cell death, MTT assay; assay type: cell-based
Description: Graphs show ARPE-19 cell viability measured by the MTT assay. Increased absorbance indicates increased viability. (A) Cells were incubated with the indicated concentrations of SIH-MEM for 4 h, irradiated with blue light for 20 min in DPBS-SIH, and incubated in MEM-SIH for 24 hr before performing MTT assay. (B) Cells were pre-treated with MEM-SIH for 4 h, irradiated with blue light for 20 min in DPBS and incubated in MEM for 24 h. (C) Cells were irradiated by blue light for 20 min in DPBS and SIH-MEM was applied immediately after irradiation and maintained for 24 hrs. (D) Cells were irradiated with blue light for 20 min in DPBS and SIH-MEM was applied 1 h after irradiation and maintained for 23 h before performing MTT assay. For all graphs, relative to no SIH, * p<0.05, ** p<0.01, *** p<0.001;
For blue light irradiation experiments ARPE-19 cells devoid of endogenous lipofuscin were grown in complete medium (DMEM with 10% fetal calf serum and supplements) as previously described. At confluence the cells were allowed to accumulate A2E from a 10 μM concentration delivered in the culture medium over a 2 week period.
ARPE-19 cells that had accumulated A2E were treated with SIH in MEM for 4 hrs unless otherwise indicated. The SIH/MEM was subsequently exchanged for DPBS, the cells were irradiated at 430 nm for 20 min and then returned to complete medium and incubated for 24 hrs. Variations on this paradigm included experiments in which exposure to SIH/MEM was continued during illumination at 430 nm and for 24 hr thereafter; and experiments in which cells were not pre-incubated with SIH but instead were treated with SIH/MEM beginning either immediately after irradiation and continuing for 24 hrs or beginning 1 hr after irradiation and continuing for 23 hrs. In all experiments controls included A2E-laden irradiated cells that were not treated with SIH, cells that received no treatment (A2E-free, non-irradiated, incubation with MEM in the absence of SIH) and cells treated only with SIH.
In blue light irradiation experiments cell death was assayed by the 3-(4,5-dimethylthiazol-2-yl)-2,5-diphenyltetrazolium bromide assay, a measure of the ability of healthy cells to cleave the yellow tetrazolium salt MTT to purple formazan crystals. Briefly, following the post-illumination incubation described above, 20 uL of MTT labeling reagent (Roche Diagnostics Corp, Indianapolis, Ind.) was added to 0.2 mL of culture medium in each well and after a 4 hr incubation, the labeling reagent was replaced with 200 uL of solubilization solution for an overnight incubation. After centrifugation at 13,000 rpm for 2 min, supernatants were measured spectrophotometrically. A decrease in the absorbance (570 nm) of reduced MTT was indicative of diminished cellular viability.

[8] = tested on: ARPE-19 cells; assay: Anti-Fas antibody (aFas)-induced cell death, LDH release assay; assay type: cell-based, Human; conditions: SIH beginning 4 hrs before treatment with aFas

For `CN[C@@H]1C[C@H]2O[C@@](C)([C@@H]1OC)n1c3ccccc3c3c4c(c5c6ccccc6n2c5c31)C(=O)NC4` [staurosporine, reference compound], the “cell death (LDH release)” value ([1]; 200 nM staurosporine) was “significant cell death”, the “cell death (LDH release)” value ([1]; 500 nM staurosporine) was “significant cell death” and the “fluorescence of rhodamine 123 (ROS)” value ([2]; 200 nM staurosporine for 30 min, then dihydrorhodamine 123 for 15 min) was “increased fluorescence”. For the same compound, the “fluorescence of rhodamine 123 (ROS)” value ([2]; 500 nM staurosporine) was “greater increase in fluorescence”.

With `O=C(NN=Cc1ccccc1O)c1ccncc1` [SIH, salicylaldehyde isonicotinoyl hydrazone] the “GFP fluorescence (labile iron level)” value ([3]; 3 μM SIH) was “decreased significantly”, the “GFP fluorescence (labile iron level)” value ([3]; 10 μM SIH) was “decreased significantly” and the “GFP fluorescence (labile iron level)” value ([3]; 50 μM SIH) was “close to the level of untreated control”. For the same compound, the “GFP fluorescence (labile iron level)” value ([3]; 100 μM SIH) was “close to the level of untreated control”, the “GFP fluorescence (labile iron level)” value ([3]; 1 mM SIH) was “decreased slightly” and the iRPE fluorescence levels ([3]; iron-containing medium DMEM-F12 with 10% fetal calf serum) was “decreased the fluorescence”. The “cell viability (LDH release)” value ([1]; SIH 4 h before and through 24 h of 200 nM staurosporine) was “increased in an SIH concentration-dependent manner”, the “cell viability (LDH release)” value ([1]; SIH 4 h before and through 24 h of 500 nm staurosporine (not shown)) was “increased in an SIH concentration-dependent manner” and the “red (dead) cells, live/dead fluorescent imaging” value ([1]; staurosporine plus 5 μM SIH) was “very few or none”. The “red (dead) cells, live/dead fluorescent imaging” value ([1]; staurosporine plus 10 μM SIH) was “very few or none”, the “SIH concentration of greatest cytoprotective effect” value ([1]; staurosporine-induced cell death) was 10 µM and the “5 mM H2O2 cytotoxicity” value ([4]; 5 μM SIH before H2O2 and mixed with H2O2, 24 h) was “completely abolished”. The “5 mM H2O2 cytotoxicity” value ([4]; 10 μM SIH before H2O2 and mixed with H2O2, 24 h) was “completely abolished”, the “cytoprotection against H2O2” value ([4]; SIH applied 1 h after H2O2 (data not shown)) was “no protection” and the “cytoprotection against H2O2” value ([4]; SIH applied together with H2O2 but without SIH pre-treatment) was “Diminished cytoprotection”. For the same compound, the “cytoprotection against H2O2” value ([4]; SIH pre-incubated with ferric ammonium citrate in a 2:1 molar ratio (data not shown)) was “no protection”, the “changes in spectroscopic properties of SIH-H2O2 mixture compared with SIH and H2O2 alone” value [5] was “did not detect any changes” and the “carbonyl levels in total protein extracts” value ([6]; H2O2-treated cells, 5 μM SIH, 24 h) was “did not affect”. The “carbonyl levels in mitochondria-enriched fractions” value ([6]; cells treated for 24 h with H202, 5 μM SIH) was “more pronounced decrease”, the “carbonyl levels in mitochondria-enriched fractions” value ([6]; cells treated for 24 h with staurosporine, 5 μM SIH) was “more pronounced decrease” and the “carbonyls in total protein extracts” value ([6]; staurosporine-treated cells, 5 μM SIH, 24 h) was “small decrease”. The “staurosporine-induced rhodamine 123 fluorescence (ROS)” value ([2]; 3 μM SIH) was “diminished”, the “protection of cell viability (MTT)” value ([7]; SIH applied 1 hr after light exposure) was “partial protection” and the “cell viability (MTT)” value ([7]; SIH before, during, or as late as 1 hr after blue light exposure) was “cell viability was increased”. The “cell viability (MTT)” value ([7]; SIH present before, during, and after light exposure) was “greatest increase in cell viability”, the SIH-mediated toxicity ([7]; cells incubated with SIH but not exposed to A2E or blue light) was “No SIH-mediated toxicity” and the “cell death caused by Fas activation (LDH release)” value [8] was “reduced cell death”.

`OO` [H2O2, hydrogen peroxide, reference compound] showed a cell death ([4]; 5 mM H2O2, 24 h, LDH release and Live/Dead assay) of 100%.
